# In patent US20240131032A1, “AN ACTIVITY-GUIDED MAP OF ELECTROPHILE-CYSTEINE INTERACTIONS IN PRIMARY HUMAN IMMUNE CELLS” (The Scripps Research Institute, priority 2019, published 2024):
# Tests used:
# NF-κB = NF-κB activation in stimulated T cells (phosphorylation readout); assay type: cell-based, human; details: 24 h
# Protocol: All treatments were for 24 h.
# Freshly isolated T cells (2×10^5 cells/well) were harvested and stimulated as described before in a 96-well plate in the presence of DMSO or compounds of interest. Following the overnight treatment, the cells were pelleted in a U-bottom plate, harvested by centrifugation (600 g, 3 min, 4° C.), washed with PBS, and stained with near-IR LIVE/DEAD dye as described above. After the staining, intracellular phospho-NF-κB p65 (Ser536) levels were measured using PE conjugate of phospho-NF-κB p65 (Ser536) (93H1) rabbit antibody (Cell Signaling Technology) according to manufacturer's instructions. Briefly, the cells were washed with PBS and fixed with 4% PFA in PBS (100 μL, 15 min, rt). The cells were washed with PBS again (2×150 μL), placed on ice and permeabilized with 90% MeOH (100 μL/well, slow addition with gentle mixing by pipetting up and down). Following a 30 min incubation on ice, the plate was sealed and stored at −20° C. overnight. The following day, the cells were thawed on ice, washed with PBS (150 μL×2), and stained with PE conjugate of phospho-NF-κB p65 (Ser536) (93H1) rabbit antibody (50 μL, 1:100 dilution in incubation buffer (1% FBS in PBS)) for 1 h at rt in the dark. The cells were then washed with incubation buffer (150 μL×2) and resuspended in PBS for further flow cytometry analysis.
# NuRD complex = experiment: Western blot of NuRD complex members in T cells; assay type: cell-based, human; details: BPK-25 10 μM
# Protocol: FIG. 7B is a scatter plot representation of protein abundance changes caused by BPK-25 (10 μM, 24 h) in two independent replicate experiments, with decreases in NuRD complex components highlighted in red. FIG. 7C is a heatmap of top proteins with decreased abundance in BPK-25-treated T cells showing that the subset of these proteins in the NuRD complex (asterisks) were largely unaltered by other active compounds and blocked in their degradation by co-treatment with the proteasome inhibitor MG132. […] FIG. 7E is a bar graph […] showing time-dependent reductions in NuRD complex members in human T cells treated with BPK-25 (10 μM). Left, representative western blots. Right, quantification of changes in protein. […]
# BPK-25 (10 μM) treated expanded T cells were washed with PBS before permeabilization by rotation at 4° C. for 10 min with cytoplasm lysis buffer (10 mM sodium phosphate pH 7.4, 25 mM KCl, 1.5 mM MgCl2, 10% glycerol, and 0.025% NP40 supplemented with 1×HALT protease inhibitor cocktail (Thermo Scientific)). […] Insoluble material was precipitated by centrifugation (12,000 g, […]) and the protein concentration of nuclear extracts was measured using standard BCA assay (Thermo Scientific) and normalized. […] Blots were imaged using fluorescence-labeled secondary antibodies (LI-COR) on the Odyssey CLx Imager.
SMILES,reductions in phosphorylation (NF-κB activation) (NF-κB),time of initial changes in NuRD complex proteins (NuRD complex) [h],time of maximal effects on NuRD complex proteins (NuRD complex) [h]
C=CC(=O)N(Cc1cccc(Cl)c1Cl)c1ccc(Oc2ccccc2)c(C(F)(F)F)c1 [BPK-21],did not appear to impact,–,–
C=CC(=O)N(Cc1cccc(Cl)n1)c1ccc(C(=O)Nc2ccccc2)nc1 [BPK-25],–,6,24
